# In patent publication US20250009702A1 (SICHUAN JIUZHANG BIOLOGICAL SCIENCE AND TECHNOLOGY CO., LTD., priority 2021, published 2025):
# Key:
# [1] = tested on: pfeiffer cancer cells (diffuse large B-cell lymphoma cell line); experiment: MTS assay of the in vitro inhibitory effect on DLBCL cells (pfeiffer); assay type: cell-based; conditions: for OD value Mean / OD value 1 / OD value 2 / OD value 3: MTS, 490 nm; for OD value 1: well 1; for OD value 2: well 2; for OD value 3: well 3
# Description: 2.2 MTS Assay of the In Vitro Inhibitory Effect of the Treatment Group on DLBCL Cells (Pfeiffer)
# The cells in logarithmic growth phase were digested with 0.25% trypsin, washed with the basic medium, and centrifuged (1000 r/min, twice in 5 minutes). The cells were suspended with complete medium, and the cell concentration was adjusted to […], which was inoculated into a 96-well plate at 50 μl/well (6×10^3 cells/well).
# The next day, after the cells adhered to the wall, the drug was given to each group and then incubated for 48 h at a constant temperature of 37° C. under 5% CO2. The dosage for each well is 100 μl. For the blank group, no cell was inoculated, and an equal amount of medium (100 μl) was added; the negative control group received an equal amount of medium (100 μl) after cell inoculation, and 3 wells were set for one group.
# 20 μl of MTS was added to each well. The plate was further cultivated for 3 h for color development, and then shaken for 10 seconds before testing, to mix well.
# The OD value was determined at a wavelength of 490 nm using an enzyme-linked immunosorbent assay (ELISA), and the OD value of the blank control was adjusted to 0.
# [2] = tested on: DLBCL in the brain (DLBCL Ly8 cell lines); experiment: In vivo treatment of DLBCL in the brain (Ly8 transplanted tumor model); conditions: i.p. 3 mg/kg once every two days
# Description: DLBCL Ly8 cell lines were purchased from the Cancer Hospital of Fudan University, which were suspended, cultured, and passaged in 10% calf serum DMEM complete medium, with stable growth. Cells in the logarithmic growth phase were collected, centrifuged, counted, and diluted to 10^4/μl for later use. Cells were inoculated at 2×10^4 cells/animal.
# (§1) BALB/c mice: 60 mice, half male and half female, 3-4 weeks old, weighing 15-22 g, purchased from the Experimental Animal Management Center of West China Medical Center.
# The mice were anesthetized by intraperitoneal injection of 1% pentobarbital sodium (0.2 μl), fixed on a stereotactic device, and disinfected with 2% chlorhexidine iodine solution on the skin of skull part. The injection site of the syringe was 0.1 cm to the left or right of the midline of the skull, and 0.3 cm in front of the coronal suture in mice. The microsyringe was sequentially penetrated through the skin and skull of the mouse skull part, and was fixed about 1-2 mm into the skull. 2 μl of Ly8 cell suspension was slowly injected (about 2×10^4 cells), and the injection was performed within 15 minutes, followed by leaving the needle for 5 minutes to allow the cells to fully attach, and then slowly removing the needle. […] During sleep after anesthesia, the mice were kept at 30° C. for 2 h. After anesthesia wore off, the mice were placed at room temperature of 25° C., and the surface changes were observed 24 h after inoculation. The following symptoms were observed: topical protrusion on the injection side, body emaciation, lethargy, and decreased mobility.
# The mice in the above test drug groups receiving the prepared drug were administered by intraperitoneal injection at 0.2 mL/10 g body weight. The drug preparation was formulated prior to daily administration, and given for 14 days.
# (§2) During the administration period, the growth of the mouse tumor, eating, activity, and other adverse reactions were observed and recorded every other day. After 14 days of administration, the mice were euthanized using cervical dislocation method, and their body weight and tumor size were measured and recorded according to the pre-administration numbers. The tumor inhibition rate (%) was calculated based on tumor weight.
# [3] = tested on: DLBCL in the orbit (DLBCL pfeiffer cell lines); experiment: In vivo treatment of DLBCL in the orbit (pfeiffer transplanted tumor model)
# Description: DLBCL pfeiffercell lines were purchased from ATCC, USA.
# as §1
# The cells were thawed in a 37° C. water bath according to the method provided by ATCC, and cultured in RPMI-1640 medium. The medium was exchanged or the cells were passaged every 1-2 days. When the cells were in a stable proliferative state, the cells with good vitality were selected from the 2nd to 3rd generations and counted under a microscope using a cell counting board. The concentration of inoculate cells was adjusted to 1.5×10^8/ml, and sealed for later use.
# The tumor cell suspension inoculation method was used. Before cell inoculation, all mice were subjected to cesium-137 radiation to further immunosuppress and improve the success rate of inoculation. Tumor cells were inoculated within 6 hours after irradiation. After disinfecting with 75% alcohol around the eyes, 0.1 ml of tumor cell suspension was drawn using an 1 ml empty needle, and injected into the orbit through the skin of the upper temporal eyelid. […] After inoculation, high-pressure sterilized water containing 100000 U/L of gentamicin was given for one week to prevent infection. 5% glucose with egg yolk was orally administered daily to enhance nutrition. The growth state of mice and local tumor growth was observed every day.
# The drug preparation was formulated prior to daily administration, and given for 14 days.
# as §2
# [4] = Homo sapiens, 10 μg/ml, 48 h, pfeiffer cells, read-out: Inhibition rate (%)
# [5] = i.p. 3 mg/kg once every two days, 14 days
compound,measurement,setting,value
CN(Cc1cnc2nc(N)nc(N)c2n1)c1ccc(C(=O)N[C@@H](CCC(=O)O)C(=O)O)cc1 [methotrexate],OD value Mean,"[1]; 10 μg/ml, 48 h",1.193
same,OD value 1,"[1]; 10 μg/ml, 48 h",1.202
same,OD value 2,"[1]; 10 μg/ml, 48 h",1.193
same,OD value 3,"[1]; 10 μg/ml, 48 h",1.185
same,inhibition at 10 µg/mL,[1]; [4],48.7%
same,Survival number (mouse),[2]; 14 days,6 mouse
same,Tumor inhibition rate (%),[2]; 14 days,41.06%
same,Tumor weight,[2]; 14 days,0.79 ± 0.12 g
same,Weight (g) After treatment,[2]; 14 days,17.26 ± 0.65 g
same,deaths,[2]; positive control group,1
same,Body weight (g) Before administration,"[3]; before administration, group later given i.p. 3 mg/kg once every two days",19.31 ± 0.66 g
same,Body weight (g) After administration,[3]; [5],18.23 ± 0.79 g
same,Survival number (mice),[3]; [5],6 mice
same,Tumor inhibition rate (%),[3]; [5],41.14%
same,deaths,"[3]; positive control group, i.p. 3 mg/kg once every two days",1
"O=C(/C=C/c1ccc(O)c(O)c1)O[C@@H]1C[C@](O)(C(=O)O)C[C@@H](O)[C@H]1O [CHA, Chlorogenic acid]",OD value Mean,"[1]; 5 μg/ml, 48 h",1.263
same,OD value 1,"[1]; 5 μg/ml, 48 h",1.335
same,OD value 2,"[1]; 5 μg/ml, 48 h",1.221
same,OD value 3,"[1]; 5 μg/ml, 48 h",1.233
same,OD value Mean,"[1]; 10 μg/ml, 48 h",1.149
same,OD value 1,"[1]; 10 μg/ml, 48 h",1.156
same,OD value 2,"[1]; 10 μg/ml, 48 h",1.142
same,OD value 3,"[1]; 10 μg/ml, 48 h",1.15
same,OD value Mean,"[1]; 30 μg/ml, 48 h",0.998
same,OD value 1,"[1]; 30 μg/ml, 48 h",1.006
same,OD value 2,"[1]; 30 μg/ml, 48 h",1.007
same,OD value 3,"[1]; 30 μg/ml, 48 h",0.98
same,OD value Mean,"[1]; 50 μg/ml, 48 h",0.628
same,OD value 1,"[1]; 50 μg/ml, 48 h",0.630
same,OD value 2,"[1]; 50 μg/ml, 48 h",0.621
same,OD value 3,"[1]; 50 μg/ml, 48 h",0.634
same,OD value Mean,"[1]; 100 μg/ml, 48 h",0.658
same,OD value 1,"[1]; 100 μg/ml, 48 h",0.661
same,OD value 2,"[1]; 100 μg/ml, 48 h",0.65
same,OD value 3,"[1]; 100 μg/ml, 48 h",0.664
same,cell morphology / growth of pfeiffer cancer cell lines under inverted microscope,"[1]; 50-100 μg/ml, 48 h",significant inhibitory effect
same,inhibition at 5 µg/mL,"[1]; Homo sapiens, 5 μg/ml, 48 h, pfeiffer cells, read-out: Inhibition rate (%)",45.7%
same,inhibition at 10 µg/mL,[1]; [4],50.6%
same,inhibition at 30 µg/mL,"[1]; Homo sapiens, 30 μg/ml, 48 h, pfeiffer cells, read-out: Inhibition rate (%)",57.1%
same,inhibition at 50 µg/mL,"[1]; Homo sapiens, 50 μg/ml, 48 h, pfeiffer cells, read-out: Inhibition rate (%)",73%
same,inhibition at 100 µg/mL,"[1]; Homo sapiens, 100 μg/ml, 48 h, pfeiffer cells, read-out: Inhibition rate (%)",71.7%
same,tumor inhibition rate,"[1]; concentration 50-100 μg/ml, pfeiffer cells",71.68-72.97%
same,inhibitory effect on pfeiffer cancer cells compared with methotrexate,[1]; same dose 10 μg/ml,higher inhibitory effect
